# Reference: patent US20250177382A1, “NEK7 INHIBITORS” (Halia Therapeutics, Inc., priority 2021, published 2025)
# What was measured:
# [1] = tested on: IL-1β release in THP-1 cells; assay: IL-1β release assay; assay type: cell-based; conditions: Homo sapiens; PMA-differentiated THP-1 cells, LPS + nigericin, cleaved IL-1β by JESS
# Procedure: Approximately 1.5 million THP-1 cells were plated in each well of a 6-well TC plate and incubated with 40 nM PMA in RPMI (10% FBS, 1% Penstrep) for 24 hours. The media was then removed and cells were rested in RPMI (10% FBS, 1% Penstrep) for 24 hours after which time the media was removed and cells were pre-treated for 2 hours with various concentrations of compounds of interest (typically serial 3-fold dilution in RPMI+5% FBS, concentrations ranging from 1 μM to 0.5 nM) in RPMI (5% FBS). The media was again removed and cells were incubated with 250 ng/mL LPS and compounds of interest (concentrations as above) in RMPI (5% FBS) for 2 hours. The media was removed for a last time and cells were incubated with 20 μM nigericin and compounds of interest (concentrations as above) in Opti-MEM for 30 minutes. Cell media was then collected and the amount of cleaved IL-1β was determined using a JESS instrument (Protein Simple) and standard protocols. Cleaved Il-1β antibody was obtained from Cell Signaling (catalogue #83186S) and was used at 1:20 dilution in antibody diluent 2. Protein Simple 1× anti-Rabbit HRP secondary antibody was used along with Protein Simple luminol and peroxide for chemiluminescent detection. Primary antibody incubation time was increased from 30 minutes to 60 minutes.
# (§1) Representative compounds were tested for inhibitory activity against NEK7 and IL-1β release according to the procedures described above.
# [2] = biological target: T1, full-length recombinant human NEK7 (Homo sapiens, UniProt Q8TDX7); assay: NEK7 enzymatic assay; assay type: biochemical; conditions: casein substrate, [32P]-ATP, radiometric P81 filter assay
# T1 construct: full-length recombinant human NEK7; GST (N); purchased SignalChem N09-10G; host or cells: Sf9 insect cells (baculovirus)
# T1 sequence (Q8TDX7 whole entry): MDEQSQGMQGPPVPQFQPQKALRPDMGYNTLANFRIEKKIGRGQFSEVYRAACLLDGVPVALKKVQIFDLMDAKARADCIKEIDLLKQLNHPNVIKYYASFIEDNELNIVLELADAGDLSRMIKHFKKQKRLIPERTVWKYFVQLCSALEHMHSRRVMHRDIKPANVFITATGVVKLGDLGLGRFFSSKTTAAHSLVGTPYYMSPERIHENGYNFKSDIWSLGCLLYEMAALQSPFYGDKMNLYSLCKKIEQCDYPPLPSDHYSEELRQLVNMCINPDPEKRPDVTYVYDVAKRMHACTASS
# Procedure: Casein substrate (from bovine milk, hydrolyzed and partially dephosphorylated mixture of α, β, and κ caseins, obtained from Sigma Aldrich, catalogue #C4765, diluted in distilled water to a final concentration of 1 mg/mL, assay concentration 20 μM) and full-length recombinant human NEK7 (expressed by baculovirus in Sf9 insect cells using a N-terminal GST tag, obtained from SignalChem, catalogue #N09-10G, […], assay concentration 70 nM) were mixed in assay buffer (20 mM Hepes pH 7.5, 10 mM MgCl2, 1 mM EGTA, 0.02% Brij35, 0.02 mg/mL BSA, 0.1 mM […], 2 mM DTT, 1% DMSO). Compounds of interest (in DMSO, serial 3-fold dilution from 10 μM to 0.5 nM) or control (1% DMSO) were dispensed into the kinase reaction mixture by Acoustic technology (Echo550; nanoliter range). After incubation at room temperature for 20 minutes, the kinase reaction was initiated by addition of [^32P]-ATP (Specific activity 10 μUCi/μl) and the mixture was incubated at room temperature for 2 hours. The reaction was then stopped by spotting the reaction mixture on strips of phosphocellulose P81 paper. Following washing, the radioactivity of the P81 paper was measured and kinase activity data were expressed as the percent remaining kinase activity in test samples compared to vehicle (dimethyl sulfoxide) reactions. IC50 values and curve fits were obtained using Prism (GraphPad Software).
# as §1
Structure (SMILES),IC50 [1] [nM],IC50 [2] [nM]
"Cc1[nH]c2nccc(Oc3ccc(NC(=O)Nc4ccc(CN5CCN(C)CC5)c(C(F)(F)F)c4)c(F)c3)c2c1Cl [Example I-11, 1-(4-((3-chloro-2-methyl-1H-pyrrolo[2,3-b]pyridin-4-yl)oxy)-2-fluorophenyl)-3-(4-((4-methylpiperazin-1-yl)methyl)-3-(trifluoromethyl)phenyl)urea]",< 50,–
"CC(=O)N1CCC(Oc2ccc(NC(=O)Nc3ccc(Oc4ccnc5[nH]cc(Cl)c45)cc3F)cc2C(F)(F)F)CC1 [Example I-59, 1-(4-((1-acetylpiperidin-4-yl)oxy)-3-(trifluoromethyl)phenyl)-3-(4-((3-chloro-1H-pyrrolo[2,3-b]pyridin-4-yl)oxy)-2-fluorophenyl)urea]",250 to 1000,> 2000
"CN1CCN(Cc2ccc(NC(=O)Nc3ccc(Oc4ccnc5[nH]cc(C6CC6)c45)cc3F)cc2C(F)(F)F)CC1 [Example I-7, 1-(4-((3-cyclopropyl-1H-pyrrolo[2,3-b]pyridin-4-yl)oxy)-2-fluorophenyl)-3-(4-((4-methylpiperazin-1-yl)methyl)-3-(trifluoromethyl)phenyl)urea]",50 to 250,–
"CN1CCC(Oc2ccc(NC(=O)Nc3ccc(Oc4ccnc5[nH]cc(Cl)c45)cc3F)cc2C(F)(F)F)CC1 [Example I-39, 1-(4-((3-chloro-1H-pyrrolo[2,3-b]pyridin-4-yl)oxy)-2-fluorophenyl)-3-(4-((1-methylpiperidin-4-yl)oxy)-3-(trifluoromethyl)phenyl)urea]",50 to 250,200 to 500
"CN1CCC(=Cc2ccc(NC(=O)Nc3ccc(Oc4ccnc5[nH]cc(Cl)c45)cc3F)cc2C(F)(F)F)CC1 [Example I-40, 1-(4-((3-chloro-1H-pyrrolo[2,3-b]pyridin-4-yl)oxy)-2-fluorophenyl)-3-(4-((1-methylpiperidin-4-ylidene)methyl)-3-(trifluoromethyl)phenyl)urea]",< 50,500 to 2000

# Other lines, results leading:
IC50 [1] [nM],IC50 [2] [nM],Structure (SMILES)
50 to 250,200 to 500,"Cc1c[nH]c2nccc(Oc3ccc(NC(=O)Nc4ccc(CN5CCN(C)CC5)c(C(F)(F)F)c4)c(F)c3)c12 [Example I-36, 1-(2-fluoro-4-((3-methyl-1H-pyrrolo[2,3-b]pyridin-4-yl)oxy)phenyl)-3-(4-((4-methylpiperazin-1-yl)methyl)-3-(trifluoromethyl)phenyl)urea]"
< 50,< 200,"CN1CCN(Cc2ccc(NC(=O)Nc3ccc(Oc4ccnc5[nH]cc(Cl)c45)cn3)cc2C(F)(F)F)CC1 [Example I-24, 1-(5-((3-chloro-1H-pyrrolo[2,3-b]pyridin-4-yl)oxy)pyridin-2-yl)-3-(4-((4-methylpiperazin-1-yl)methyl)-3-(trifluoromethyl)phenyl)urea]"
< 50,–,"CN1CCN(Cc2ccc(NC(=O)Nc3ccc(Oc4ccnc5[nH]cc(Cl)c45)cc3F)cc2C(F)(F)F)CC1 [Example I-1, 1-(4-((3-chloro-1H-pyrrolo[2,3-b]pyridin-4-yl)oxy)-2-fluorophenyl)-3-(4-((4-methylpiperazin-1-yl)methyl)-3-(trifluoromethyl)phenyl)urea]"
< 50,–,"CCN1CCN(Cc2ccc(NC(=O)Nc3ccc(Oc4ccnc5[nH]cc(Cl)c45)cc3F)cc2C(F)(F)F)CC1 [Example I-37, 1-(4-((3-chloro-1H-pyrrolo[2,3-b]pyridin-4-yl)oxy)-2-fluorophenyl)-3-(4-((4-ethylpiperazin-1-yl)methyl)-3-(trifluoromethyl)phenyl)urea]"
50 to 250,200 to 500,"CN1CCC(Oc2ncc(NC(=O)Nc3ccc(Oc4ccnc5[nH]cc(Cl)c45)cc3F)cc2C(F)(F)F)CC1 [Example I-58, 1-(4-((3-chloro-1H-pyrrolo[2,3-b]pyridin-4-yl)oxy)-2-fluorophenyl)-3-(6-((1-methylpiperidin-4-yl)oxy)-5-(trifluoromethyl)pyridin-3-yl)urea]"
–,500 to 2000,"CN1CCN(Cc2ncc(NC(=O)Nc3ccc(Oc4ccnc5[nH]cc(Cl)c45)cc3F)cc2C(F)(F)F)CC1 [Example I-46, 1-(4-((3-chloro-1H-pyrrolo[2,3-b]pyridin-4-yl)oxy)-2-fluorophenyl)-3-(6-((4-methylpiperazin-1-yl)methyl)-5-(trifluoromethyl)pyridin-3-yl)urea]"
